From ChEMBL document CHEMBL5653615 (J Biol Chem, 2013)

Columns and labels:
[1] = target: RAC-alpha serine/threonine-protein kinase (Homo sapiens) (UniProt P31749); experiment: Inhibition of human AKT1 at 500 nM by HotSpot assay relative to control
[2] = target: Tyrosine-protein kinase Blk (Homo sapiens) (UniProt P51451); experiment: Inhibition of human BLK at 500 nM by HotSpot assay relative to control
[3] = target: Tyrosine-protein kinase BTK (Homo sapiens) (UniProt Q06187); experiment: Inhibition of human BTK at 500 nM by HotSpot assay relative to control
Tyrosine-protein kinase BTK (Homo sapiens), sequence (Q06187 whole entry): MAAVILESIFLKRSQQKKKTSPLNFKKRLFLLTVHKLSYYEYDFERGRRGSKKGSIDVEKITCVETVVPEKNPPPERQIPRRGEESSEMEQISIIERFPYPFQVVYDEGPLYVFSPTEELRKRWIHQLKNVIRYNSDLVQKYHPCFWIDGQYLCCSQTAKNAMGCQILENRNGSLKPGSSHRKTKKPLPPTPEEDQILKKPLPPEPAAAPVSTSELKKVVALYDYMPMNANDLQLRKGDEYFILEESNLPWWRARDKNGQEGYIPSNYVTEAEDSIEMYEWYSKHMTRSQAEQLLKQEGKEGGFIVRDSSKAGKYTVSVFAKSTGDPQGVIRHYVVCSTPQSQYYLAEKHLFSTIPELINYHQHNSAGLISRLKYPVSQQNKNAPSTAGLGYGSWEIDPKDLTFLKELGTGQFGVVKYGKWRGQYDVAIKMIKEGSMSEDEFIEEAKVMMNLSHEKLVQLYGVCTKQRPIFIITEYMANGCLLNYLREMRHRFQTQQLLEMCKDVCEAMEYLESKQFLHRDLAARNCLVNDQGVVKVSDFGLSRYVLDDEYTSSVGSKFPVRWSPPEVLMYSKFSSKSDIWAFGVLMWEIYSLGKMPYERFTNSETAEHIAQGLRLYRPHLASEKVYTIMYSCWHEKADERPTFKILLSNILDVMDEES

[4] = target: Calcium/calmodulin-dependent protein kinase kinase 2 (Homo sapiens) (UniProt Q96RR4); experiment: Inhibition of human CAMKK2 at 500 nM by HotSpot assay relative to control
Calcium/calmodulin-dependent protein kinase kinase 2 (Homo sapiens), sequence (Q96RR4 2-588 limits assumed): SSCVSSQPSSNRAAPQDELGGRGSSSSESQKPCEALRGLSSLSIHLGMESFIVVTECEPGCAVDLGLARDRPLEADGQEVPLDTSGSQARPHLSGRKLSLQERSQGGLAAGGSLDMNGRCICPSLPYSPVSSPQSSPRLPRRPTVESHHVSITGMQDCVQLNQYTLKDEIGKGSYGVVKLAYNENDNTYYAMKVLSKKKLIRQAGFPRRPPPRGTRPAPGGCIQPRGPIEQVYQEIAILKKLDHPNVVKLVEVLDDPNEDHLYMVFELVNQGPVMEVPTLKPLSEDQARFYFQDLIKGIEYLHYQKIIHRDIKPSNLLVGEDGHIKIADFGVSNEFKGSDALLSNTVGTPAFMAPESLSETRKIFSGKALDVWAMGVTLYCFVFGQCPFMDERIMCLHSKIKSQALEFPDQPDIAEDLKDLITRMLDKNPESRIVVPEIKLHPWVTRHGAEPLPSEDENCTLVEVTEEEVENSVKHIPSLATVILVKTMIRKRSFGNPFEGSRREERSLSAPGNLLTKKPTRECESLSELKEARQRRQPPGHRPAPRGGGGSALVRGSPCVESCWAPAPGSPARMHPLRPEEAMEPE

[5] = target: Cyclin-dependent kinase 1/cyclin B1 (Homo sapiens) (UniProt P06493+P14635); experiment: Inhibition of human CDK1/cyclin B at 500 nM by HotSpot assay relative to control; type: protein-complex assay
Cyclin-dependent kinase 1/cyclin B1 (Homo sapiens), sequence (P06493 whole entry, looked up): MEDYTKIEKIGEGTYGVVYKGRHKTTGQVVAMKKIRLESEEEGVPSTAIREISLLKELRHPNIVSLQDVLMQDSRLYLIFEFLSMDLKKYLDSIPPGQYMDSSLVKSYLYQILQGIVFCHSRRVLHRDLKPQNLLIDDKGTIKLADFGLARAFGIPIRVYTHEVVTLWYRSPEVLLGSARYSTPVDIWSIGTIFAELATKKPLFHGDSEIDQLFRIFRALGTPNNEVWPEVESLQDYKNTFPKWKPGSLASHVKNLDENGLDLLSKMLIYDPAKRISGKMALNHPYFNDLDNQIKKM
Cyclin-dependent kinase 1/cyclin B1 (Homo sapiens), sequence (P14635 whole entry, looked up): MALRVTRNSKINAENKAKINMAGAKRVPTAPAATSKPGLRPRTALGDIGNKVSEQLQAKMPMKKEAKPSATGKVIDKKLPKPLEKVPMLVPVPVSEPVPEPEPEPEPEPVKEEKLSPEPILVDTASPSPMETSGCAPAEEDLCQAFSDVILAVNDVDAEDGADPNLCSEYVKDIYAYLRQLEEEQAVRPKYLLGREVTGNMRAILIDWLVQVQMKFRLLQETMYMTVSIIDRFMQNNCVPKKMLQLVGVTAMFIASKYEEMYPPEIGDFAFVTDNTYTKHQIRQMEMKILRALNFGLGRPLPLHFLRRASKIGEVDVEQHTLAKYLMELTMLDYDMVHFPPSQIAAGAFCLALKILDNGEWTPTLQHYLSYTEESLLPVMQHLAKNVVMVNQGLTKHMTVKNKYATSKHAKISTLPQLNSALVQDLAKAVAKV

[6] = target: Tyrosine-protein kinase CSK (Homo sapiens) (UniProt P41240); experiment: Inhibition of human CSK at 500 nM by HotSpot assay relative to control
Tyrosine-protein kinase CSK (Homo sapiens), sequence (P41240 2-450 limits assumed): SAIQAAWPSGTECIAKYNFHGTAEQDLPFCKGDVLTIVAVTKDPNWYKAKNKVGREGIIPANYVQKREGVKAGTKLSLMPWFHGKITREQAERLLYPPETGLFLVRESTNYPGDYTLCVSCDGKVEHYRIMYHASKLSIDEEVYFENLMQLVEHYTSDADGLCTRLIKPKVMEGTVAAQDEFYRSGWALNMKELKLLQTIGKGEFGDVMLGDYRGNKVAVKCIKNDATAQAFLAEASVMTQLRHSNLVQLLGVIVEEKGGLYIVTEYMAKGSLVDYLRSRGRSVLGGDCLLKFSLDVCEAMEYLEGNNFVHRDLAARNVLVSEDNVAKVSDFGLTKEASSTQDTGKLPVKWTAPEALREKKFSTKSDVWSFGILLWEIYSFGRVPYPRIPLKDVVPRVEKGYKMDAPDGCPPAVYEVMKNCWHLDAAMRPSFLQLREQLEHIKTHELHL

[7] = target: Ephrin type-A receptor 2 (Homo sapiens) (UniProt P29317); experiment: Inhibition of human EPHA2 at 500 nM by HotSpot assay relative to control
[8] = target: Tyrosine-protein kinase HCK (Homo sapiens) (UniProt P08631); experiment: Inhibition of human HCK at 500 nM by HotSpot assay relative to control
[9] = target: T1, Interleukin-1 receptor-associated kinase 4 (Homo sapiens) (UniProt Q9NWZ3); experiment: Inhibition of human IRAK4 at 500 nM by HotSpot assay relative to control
T1 sequence (whole entry): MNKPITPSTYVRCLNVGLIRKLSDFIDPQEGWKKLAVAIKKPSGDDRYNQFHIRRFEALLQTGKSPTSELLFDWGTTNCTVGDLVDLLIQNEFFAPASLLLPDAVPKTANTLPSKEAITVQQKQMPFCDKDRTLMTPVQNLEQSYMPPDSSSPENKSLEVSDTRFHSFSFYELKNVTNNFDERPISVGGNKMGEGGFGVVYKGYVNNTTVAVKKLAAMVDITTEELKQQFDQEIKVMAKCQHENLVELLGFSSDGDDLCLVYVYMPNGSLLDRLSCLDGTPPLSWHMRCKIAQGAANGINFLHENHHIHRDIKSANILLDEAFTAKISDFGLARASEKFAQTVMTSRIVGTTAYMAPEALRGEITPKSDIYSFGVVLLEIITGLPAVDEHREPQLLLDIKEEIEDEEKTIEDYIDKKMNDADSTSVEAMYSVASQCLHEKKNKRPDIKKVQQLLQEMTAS

[10] = target: Mitogen-activated protein kinase 9 (Homo sapiens) (UniProt P45984); experiment: Inhibition of human JNK2 at 500 nM by HotSpot assay relative to control
Mitogen-activated protein kinase 9 (Homo sapiens), sequence (P45984 whole entry, looked up): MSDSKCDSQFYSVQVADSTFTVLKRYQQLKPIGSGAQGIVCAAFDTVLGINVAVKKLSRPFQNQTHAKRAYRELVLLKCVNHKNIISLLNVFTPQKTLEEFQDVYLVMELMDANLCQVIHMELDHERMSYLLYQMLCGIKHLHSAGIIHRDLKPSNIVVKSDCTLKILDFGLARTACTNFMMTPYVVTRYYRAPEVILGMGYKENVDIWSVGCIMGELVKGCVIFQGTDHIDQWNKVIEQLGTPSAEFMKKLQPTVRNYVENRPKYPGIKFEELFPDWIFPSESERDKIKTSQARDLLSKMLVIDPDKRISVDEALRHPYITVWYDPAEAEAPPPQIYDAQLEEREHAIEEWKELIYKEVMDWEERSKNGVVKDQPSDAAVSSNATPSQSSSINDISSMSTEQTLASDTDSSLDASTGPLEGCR

[11] = target: MAP kinase-activated protein kinase 2 (Homo sapiens) (UniProt P49137); experiment: Inhibition of human MAPKAPK2 at 500 nM by HotSpot assay relative to control
MAP kinase-activated protein kinase 2 (Homo sapiens), sequence (P49137 whole entry, looked up): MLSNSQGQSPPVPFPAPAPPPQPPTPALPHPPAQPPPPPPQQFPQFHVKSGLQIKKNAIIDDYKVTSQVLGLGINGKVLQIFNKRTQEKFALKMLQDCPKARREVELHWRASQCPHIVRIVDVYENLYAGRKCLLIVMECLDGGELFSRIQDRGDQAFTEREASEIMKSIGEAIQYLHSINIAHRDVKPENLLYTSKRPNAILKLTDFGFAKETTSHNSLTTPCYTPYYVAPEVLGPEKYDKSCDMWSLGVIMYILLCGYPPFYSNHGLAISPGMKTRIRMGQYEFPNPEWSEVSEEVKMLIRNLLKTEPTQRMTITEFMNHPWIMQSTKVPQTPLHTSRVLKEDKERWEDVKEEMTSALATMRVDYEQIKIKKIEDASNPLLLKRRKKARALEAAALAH

[12] = target: Mitogen-activated protein kinase kinase kinase 9 (Homo sapiens) (UniProt P80192); experiment: Inhibition of human MAP3K9 at 500 nM by HotSpot assay relative to control
[13] = target: Ribosomal protein S6 kinase beta-2 (Homo sapiens) (UniProt Q9UBS0); experiment: Inhibition of human RPS6KB2 at 500 nM by HotSpot assay relative to control
Ribosomal protein S6 kinase beta-2 (Homo sapiens), sequence (Q9UBS0 whole entry): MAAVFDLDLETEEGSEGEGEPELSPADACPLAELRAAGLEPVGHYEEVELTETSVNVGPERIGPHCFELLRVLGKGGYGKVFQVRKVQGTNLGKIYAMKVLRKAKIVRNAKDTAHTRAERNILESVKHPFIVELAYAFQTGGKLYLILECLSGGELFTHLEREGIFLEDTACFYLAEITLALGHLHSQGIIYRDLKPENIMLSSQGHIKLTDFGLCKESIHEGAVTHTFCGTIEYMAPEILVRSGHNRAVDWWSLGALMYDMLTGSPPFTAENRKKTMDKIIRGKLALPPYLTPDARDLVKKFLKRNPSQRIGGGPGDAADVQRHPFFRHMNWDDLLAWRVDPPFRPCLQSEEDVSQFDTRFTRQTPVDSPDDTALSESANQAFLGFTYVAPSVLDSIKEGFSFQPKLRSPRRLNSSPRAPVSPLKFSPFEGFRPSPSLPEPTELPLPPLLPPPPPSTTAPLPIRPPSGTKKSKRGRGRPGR

[14] = target: Serine/threonine-protein kinase PAK 1 (Homo sapiens) (UniProt Q13153); experiment: Inhibition of human PAK1 at 500 nM by HotSpot assay relative to control
[15] = target: T2, Phosphorylase b kinase gamma catalytic chain, liver/testis isoform (Homo sapiens) (UniProt P15735); experiment: Inhibition of human PHKg2 at 500 nM by HotSpot assay relative to control
T2 sequence (whole entry): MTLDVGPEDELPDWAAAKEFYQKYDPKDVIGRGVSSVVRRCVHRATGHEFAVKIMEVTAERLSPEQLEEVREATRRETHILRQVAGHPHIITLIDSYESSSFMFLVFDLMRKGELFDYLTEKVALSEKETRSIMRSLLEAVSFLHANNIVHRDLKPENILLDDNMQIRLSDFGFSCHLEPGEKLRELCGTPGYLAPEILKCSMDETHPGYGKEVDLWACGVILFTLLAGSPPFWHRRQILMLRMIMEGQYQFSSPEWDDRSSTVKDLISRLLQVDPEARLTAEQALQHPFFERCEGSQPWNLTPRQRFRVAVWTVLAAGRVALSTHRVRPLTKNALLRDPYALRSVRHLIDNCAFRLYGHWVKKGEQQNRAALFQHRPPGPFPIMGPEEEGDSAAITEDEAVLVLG

[16] = target: T3, cAMP-dependent protein kinase catalytic subunit PRKX (Homo sapiens) (UniProt P51817); experiment: Inhibition of human PRKX at 500 nM by HotSpot assay relative to control
T3 sequence (whole entry): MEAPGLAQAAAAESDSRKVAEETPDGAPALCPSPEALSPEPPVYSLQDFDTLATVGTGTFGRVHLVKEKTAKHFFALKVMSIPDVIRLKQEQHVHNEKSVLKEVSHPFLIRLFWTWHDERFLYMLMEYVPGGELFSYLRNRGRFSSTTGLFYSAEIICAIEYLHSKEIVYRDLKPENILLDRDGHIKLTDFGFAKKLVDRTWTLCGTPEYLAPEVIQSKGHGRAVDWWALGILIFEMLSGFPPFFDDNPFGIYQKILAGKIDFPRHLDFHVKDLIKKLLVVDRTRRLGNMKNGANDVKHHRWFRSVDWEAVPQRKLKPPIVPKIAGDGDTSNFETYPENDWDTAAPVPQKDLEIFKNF

[17] = target: T4, Tyrosine-protein kinase TXK (Homo sapiens) (UniProt P42681); experiment: Inhibition of human TXK at 500 nM by HotSpot assay relative to control
T4 sequence (whole entry): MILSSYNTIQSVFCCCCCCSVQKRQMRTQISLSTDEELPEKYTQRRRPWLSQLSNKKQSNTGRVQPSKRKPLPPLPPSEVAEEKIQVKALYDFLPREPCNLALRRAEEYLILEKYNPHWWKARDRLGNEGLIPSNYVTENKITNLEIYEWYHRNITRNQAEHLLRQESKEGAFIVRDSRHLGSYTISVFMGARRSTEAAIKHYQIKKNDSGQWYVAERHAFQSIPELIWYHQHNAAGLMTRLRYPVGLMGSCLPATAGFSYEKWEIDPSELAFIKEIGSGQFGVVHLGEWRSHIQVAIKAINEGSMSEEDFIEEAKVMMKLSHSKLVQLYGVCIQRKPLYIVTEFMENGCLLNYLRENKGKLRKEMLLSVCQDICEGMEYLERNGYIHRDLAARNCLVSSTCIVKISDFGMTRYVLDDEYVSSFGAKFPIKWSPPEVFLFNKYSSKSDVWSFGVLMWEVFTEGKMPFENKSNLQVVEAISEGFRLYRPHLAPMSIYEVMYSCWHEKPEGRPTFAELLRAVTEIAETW

Tyrosine-protein kinase Blk (Homo sapiens), sequence (P51451 2-505 limits assumed): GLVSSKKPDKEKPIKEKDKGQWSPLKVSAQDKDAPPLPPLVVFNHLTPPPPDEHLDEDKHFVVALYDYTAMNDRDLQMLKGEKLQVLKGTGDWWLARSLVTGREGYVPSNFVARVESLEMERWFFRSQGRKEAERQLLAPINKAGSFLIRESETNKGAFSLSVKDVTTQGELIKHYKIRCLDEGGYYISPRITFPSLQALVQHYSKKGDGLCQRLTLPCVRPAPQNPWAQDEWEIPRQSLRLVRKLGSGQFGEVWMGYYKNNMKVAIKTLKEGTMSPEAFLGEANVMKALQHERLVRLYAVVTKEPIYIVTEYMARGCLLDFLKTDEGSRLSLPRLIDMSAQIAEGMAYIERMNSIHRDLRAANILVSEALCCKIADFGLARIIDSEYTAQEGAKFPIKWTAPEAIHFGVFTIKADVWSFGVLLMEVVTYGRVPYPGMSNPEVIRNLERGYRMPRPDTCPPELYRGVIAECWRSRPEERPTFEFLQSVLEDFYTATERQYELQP
RAC-alpha serine/threonine-protein kinase (Homo sapiens), sequence (P31749 whole entry): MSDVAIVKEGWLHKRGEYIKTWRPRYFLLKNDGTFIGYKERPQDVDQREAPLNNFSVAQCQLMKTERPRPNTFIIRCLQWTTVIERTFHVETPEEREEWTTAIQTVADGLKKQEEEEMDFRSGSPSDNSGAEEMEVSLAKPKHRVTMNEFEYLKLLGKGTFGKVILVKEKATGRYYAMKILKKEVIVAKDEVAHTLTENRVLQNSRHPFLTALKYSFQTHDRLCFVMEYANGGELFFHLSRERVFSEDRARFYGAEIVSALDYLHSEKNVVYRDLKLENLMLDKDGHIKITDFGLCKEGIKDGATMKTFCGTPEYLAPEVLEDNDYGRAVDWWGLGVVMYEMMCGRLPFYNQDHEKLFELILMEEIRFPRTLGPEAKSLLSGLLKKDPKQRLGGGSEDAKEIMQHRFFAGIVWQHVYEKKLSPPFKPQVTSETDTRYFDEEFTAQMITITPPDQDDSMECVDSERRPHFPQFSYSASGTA

Nc1n[nH]c2nnc(-c3c(-c4ccccc4)nn4ccccc34)cc12
inhibition [1]: 1.98%
inhibition [2]: 1.92%
inhibition [3]: 6.42%
inhibition [4]: -1.27%
inhibition [5]: 9.79%
inhibition [6]: 1.98%
inhibition [7]: 1.69%
inhibition [8]: 8.92%
inhibition [9]: -5.42%
inhibition [10]: 51.6%
inhibition [11]: -5.26%
inhibition [12]: 0.07%
inhibition [13]: -4.11%
inhibition [14]: 8.08%
inhibition [15]: 17.4%
inhibition [16]: -0.73%
inhibition [17]: 11.2%

Oc1n[nH]c2nnc(-c3c(-c4ccccc4)nn4ccccc34)cc12
inhibition [1]: 2.37%
inhibition [2]: 2.09%
inhibition [3]: 9.23%
inhibition [4]: 2.27%
inhibition [5]: 9.98%
inhibition [6]: -1.06%
inhibition [7]: -0.91%
inhibition [8]: 7.7%
inhibition [9]: -3.11%
inhibition [10]: 11.7%
inhibition [11]: -5.6%
inhibition [12]: -2.83%
inhibition [13]: -8.15%
inhibition [14]: 7.2%
inhibition [15]: 8.79%
inhibition [16]: -3.08%
inhibition [17]: 2.55%
